The values that follow come from patent publication US11718628B2, “SREBP inhibitors comprising a 6-membered central ring” (Capulus Therapeutics, LLC, priority 2018, dated 2023).

Data set [1] is described as follows: Half-life in human liver microsomes. The class given is in vitro ADME. The note with it: human, liver microsomes, NADPH, 37° C., read-out: G: half-life human liver microsomes. Here is the method:
(§1) Half-life Human Microsomes: Compounds were evaluated for stability in human liver microsomes. A 10 mM stock solution of the compound being evaluated was prepared in DMSO and diluted with water:acetonitrile (1:1) to a concentration of 1 mM. A working concentration of 100 μM was prepared by further dilution with water:acetonitrile (1:1). To make the preincubation mixture, 2.5 μL of the diluted compound was combined with 75 μL of human liver microsomes at 3.33 mg/mL, and 85 μL of 100 mM potassium phosphate buffer, and this mixture was pre-incubated for 10 min at 37° C. To make the 60 minute mixture without cofactor, 32.5 μL of the preincubation mixture was combined with 17.5 μL of 100 mM potassium phosphate buffer and incubated for 60 min at 37° C. To make the 0 min sample with cofactor (NADPH), 16.25 μL of the preincubation mixture was combined with 200 μL of acetonitrile containing internal standard and 8.75 μL of cofactor (NADPH). To make the incubation mixture, 62 μL of cofactor (2.85 mM) was combined with the remaining incubation mixture, and incubated for 60 min at 37° C. To prepare the sample mixture to be evaluated, 25 μL incubation mixture was combined with 200 μL of acetonitrile containing internal standard and vortexed for 5 min at 1200 rpm, then centrifuged for 10 min at 4000 rpm. The supernatant was diluted 2 fold with water and injected on LC-MS/MS. The sample mixture was evaluated by LC-MS/MS using 10 mM ammonium acetate with 0.1% FA as the aqueous mobile phase, and methanol as the organic mobile phase.

Data set [2] can be described thus: Half-life in mouse liver microsomes. The class given is in vitro ADME. The note with it: mouse, liver microsomes, read-out: H: half-life of mouse liver microsomes. As for the experimental part: as §1
Half-life Mouse Microsomes: Compounds were evaluated in mouse liver microsomes following a similar procedure as described above for human liver microsomes. A similar procedure could be used to evaluate compounds in rat liver microsomes.
On the technique in general: Microsomes from liver hold many membrane-bound enzymes, among them those of drug oxidation.

The nature of the next data set: Kinetic solubility. To be noted: aqueous buffer, kinetic from dmso stock, pH 7.4 buffer, room temperature, 1.0% DMSO, read-out: I: kinetic solubility class. Format: physicochemical. Here is the method:
Kinetic Solubility Procedure: A 10 mM stock solution of a compound was prepared in DMSO, then 4 μL of the stock was added to a deep well plate containing 396 μL of pH 7.4 buffer. The sample plate was vortexed at 800 rpm for 24 h on thermomixer at room temperature. The plate was sealed well during the incubation process. The DMSO content in the sample was 1.0%. The concentration of the evaluated compound in the final incubation was 100 μM. At the end of the incubation period, the sample plate was centrifuged at 4000 rpm for 10 min and analyzed in LC-UV against a calibration curve (CC). Values <10 μg/mL=Low; 10 to 60 μg/mL=Medium; >60 μg/mL=High.

The structures appear in SMILES notation. In brackets after ≈: the same amount, converted by molar mass. Some results are limits rather than exact numbers.

Broadly, the half-life is the time needed for the level to fall by half in the phase considered. As usually defined, the kinetic solubility is the concentration staying in solution when a stock, usually in DMSO, is diluted into the medium.

As to `CC(C)(C)c1cc(-c2cncc(-c3cc(C(=O)N4CCC(O)CC4)ccc3Cl)c2)ccn1`, the results for the half-life at 1 µM in data set [1] and in data set [2] were 2.62 min and 1860 min, respectively. Also, in “Kinetic solubility”, the kinetic solubility at 24 h fell in the range of 10 to 60 µg/mL (≈ 22.2 to 133 µM).
On the same counts, the results for `Cc1cc(S(=O)(=O)NC(C)C)ccc1-c1cncc(-c2ccnc(C(C)(C)C)c2)c1` are 1.69 min, 177 min and 10 to 60 µg/mL (≈ 23.6 to 142 µM).
Take `CC(C)NS(=O)(=O)Nc1ccc(-c2cncc(-c3ccnc(C(C)(C)C)c3)c2)c(Cl)c1`: the results for the half-life at 1 µM in data set [1] and in data set [2] were 27.3 min and 178 min, respectively. The solubility (kinetic) at 24 h in “Kinetic solubility” is 10 to 60 µg/mL (≈ 21.8 to 131 µM).
On the same counts, the results for `Cc1c(-c2ccnc(C(C)(C)C)c2)cncc1-c1ccc(C(=O)N2CCCC(O)C2)cc1Cl` (stereo not drawn) are 11.3 min, 25.5 min and < 10 µg/mL.
Consider `CC(C)(CNC(=O)c1ccc(-c2cncc(-c3ccnc(C(C)(C)C)c3)c2)c(Cl)c1)C(=O)O`, for which the results for the half-life at 1 µM in data set [1] and in data set [2] were 2.98 min and 9.75 min, respectively. The solubility (kinetic) at 24 h in “Kinetic solubility” lay within 10 to 60 µg/mL (≈ 21.5 to 129 µM).
For `CC(C)(C)c1cc(-c2cc(-c3ccc(C(=O)N4CCC(O)CC4)cc3Cl)cc3cnccc23)ccn1` the same measures were 11.4 min, 33.8 min and 10 to 60 µg/mL (≈ 20 to 120 µM).
On the same counts, the results for `CC(C)(C)c1cc(-c2cc(-c3ccc(C(=O)N4CCC(O)CC4)cc3Cl)c3ccncc3c2)ccn1` are 119 min, 108 min and 10 to 60 µg/mL (≈ 20 to 120 µM).
As for `CC(C)(C)c1cc(-c2cncc(-c3ccc(NC(=O)OC4CCNCC4)cc3Cl)c2)ccn1`, the half-life at 1 µM was determined as 1.78 min in data set [1] and 1090 min in data set [2]. In “Kinetic solubility”, the kinetic solubility at 24 h was < 10 µg/mL.
On the same counts, the results for `CC1(c2cc(-c3cncc(-c4ccc(C(=O)N5CCC(O)CC5)cc4Cl)c3)ccn2)OCCO1` are 9.74 min, 101 min and 10 to 60 µg/mL (≈ 20.8 to 125 µM).
For `CC(C)(C)c1cc(-c2cc(-c3ccc(C(=O)N4CCC(O)CC4)cc3Cl)cc3ncccc23)ccn1` the same measures were 19 min, 10.2 min and < 10 µg/mL.
On the same counts, the results for `CC(C)(C)c1cc(-c2cc(-c3ccc(C(=O)N4CCC(O)CC4)cc3Cl)c3cccnc3c2)ccn1` are 2.07 min, 19.3 min and < 10 µg/mL.
On to `Cc1c(-c2ccnc(C(C)(C)C)c2)cncc1-c1ccc(C(=O)N2CCC(O)CC2)cc1Cl`, for which the values for the half-life at 1 µM in data set [1] and in data set [2] were 3.21 min and 19.5 min, respectively. Moreover, the kinetic solubility at 24 h in “Kinetic solubility” lay in the range of 10 to 60 µg/mL (≈ 21.6 to 129 µM).
On the same counts, the results for `CN(C)c1cc(-c2ccnc(C(C)(C)C)c2)cc(-c2ccc(C(=O)N3CCC(O)CC3)cc2Cl)c1` are 20.7 min, 13.6 min and < 10 µg/mL.
For `CC(C)(C)c1cc(-c2cc(C#N)cc(-c3ccc(C(=O)N4CCC(O)CC4)cc3Cl)c2)ccn1` the same measures were 16.1 min, 119 min and < 10 µg/mL.
On the same counts, the results for `CC(C)(C)c1cc(-c2cc(F)cc(-c3ccc(C(=O)N4CCC(O)CC4)cc3Cl)c2)ccn1` are 74.6 min, 13.6 min and < 10 µg/mL.
For `CC(C)(C)c1cc(-c2cncc(-c3ccc(C(=O)N4CC[C@@H](O)C4)cc3Cl)c2)ccn1`, the half-life at 1 µM is 5.01 min in data set [1] and 31.5 min in data set [2]. Also, the solubility (kinetic) at 24 h in the data set “Kinetic solubility” fell in the range of 10 to 60 µg/mL (≈ 22.9 to 138 µM).
For `CC1(O)CN(C(=O)c2ccc(-c3cncc(-c4ccnc(C(C)(C)C)c4)c3)c(Cl)c2)C1` the same measures were 6.72 min, 39.8 min and 10 to 60 µg/mL (≈ 22.9 to 138 µM).
For `CC(C)(C)c1cc(-c2cncc(-c3ccc(C(=O)N4CCC(F)CC4)cc3Cl)c2)ccn1` the same measures were 11 min, 11 min and < 10 µg/mL.
On the same counts, the results for `CC(C)(C)c1cc(-c2cncc(-c3ccc(C(=O)N4CC5C(O)C5C4)cc3Cl)c2)ccn1` (stereo not drawn) are 3.17 min, 20 min and 10 to 60 µg/mL (≈ 22.3 to 134 µM).
`CC(C)(C)c1cc(-c2cncc(-c3ccc(NC(=O)N4CCC(O)CC4)cc3Cl)c2)ccn1`: the half-life at 1 µM in data set [1] was 19.6 min; in data set [2], > 120 min. Moreover, in the data set “Kinetic solubility”, the solubility (kinetic) at 24 h was < 10 µg/mL.
For `O=C(c1ccc(-c2cncc(-c3ccnc(C4CC4)c3)c2)c(Cl)c1)N1CCC(O)CC1` the same measures were 36.5 min, 54.9 min and 10 to 60 µg/mL (≈ 23 to 138 µM).
On the same counts, the results for `CC(C)(C)c1cc(-c2cncc(-c3ccc(NS(=O)(=O)CC(F)(F)F)cc3Cl)c2)ccn1` are 6.03 min, > 120 min and < 10 µg/mL.
`CC1(O)CCC(C(=O)c2ccc(-c3cncc(-c4ccnc(C(C)(C)CO)c4)c3)c(Cl)c2)CC1` (stereo not drawn): the half-life at 1 µM worked out at 10 min in data set [1] and 63.6 min in data set [2]. Besides, the kinetic solubility at 24 h in “Kinetic solubility” was in the range of 10 to 60 µg/mL (≈ 20.9 to 125 µM).
For `CC(C)(CO)c1cc(-c2cncc(-c3ccc(NS(C)(=O)=O)cc3Cl)c2)ccn1` the same measures were 6.5 min, > 120 min and < 10 µg/mL.
On the same counts, the results for `CC(C)OC(=O)Nc1ccc(-c2cncc(-c3ccnc(C(C)(C)CO)c3)c2)c(Cl)c1` are 21.5 min, 87.8 min and < 10 µg/mL.
`CC(C)(C)c1cc(-c2cncc(-c3ccc(C(=O)N4CC5CCC(C4)C5O)cc3Cl)c2)ccn1` (stereo not drawn): the half-life at 1 µM in data set [1] stood at 15.4 min; in data set [2] it was 21.3 min. Besides, the solubility (kinetic) at 24 h in the data set “Kinetic solubility” is < 10 µg/mL.
For `CC(C)(C)c1cc(-c2cncc(-c3ccc(C(=O)N4CC(O)C(O)C4)cc3Cl)c2)ccn1` (stereo not drawn), the values for the half-life at 1 µM in data set [1] and in data set [2] were 29.4 min and 75.6 min, respectively. In addition, in the data set “Kinetic solubility”, the solubility (kinetic) at 24 h was in the range of 10 to 60 µg/mL (≈ 22.1 to 133 µM).
On the same counts, the results for `CC(C)(C)c1cc(-c2cncc(-c3ccc(C(=O)N4C[C@@H](O)[C@@H](O)C4)cc3Cl)c2)ccn1` are 27.1 min, 36.2 min and 10 to 60 µg/mL (≈ 22.1 to 133 µM).
For `CC(C)(C)c1cc(-c2cncc(-c3ccc(C(=O)N4CC(CO)C4)cc3Cl)c2)ccn1` the same measures were 1.74 min, 26.5 min and 10 to 60 µg/mL (≈ 22.9 to 138 µM).
Consider `CC(C)(C)c1cc(-c2cncc(-c3ccc(C(=O)N4CC(O)C4)cc3Cl)c2)ccn1`, for which the half-life at 1 µM in data set [1] was 2.01 min; in data set [2] it was 38.3 min. Besides, the kinetic solubility at 24 h in “Kinetic solubility” fell in the range of 10 to 60 µg/mL (≈ 23.7 to 142 µM).
For `CC(C)(C)c1cc(-c2cccc(-c3ccc(NS(=O)(=O)C(F)(F)F)cc3Cl)c2F)ccn1` the same measures were 0.54 min, 81.3 min and 10 to 60 µg/mL (≈ 20.5 to 123 µM).
On the same counts, the results for `CC(C)(C)c1cc(-c2cccc(-c3ccc(NS(C)(=O)=O)cc3Cl)c2)ccn1` are 90.8 min, 110 min and < 10 µg/mL.
On the same counts, the results for `CC(C)(C)c1cc(-c2cccc(-c3ccc(NS(C)(=O)=O)cc3Cl)c2F)ccn1` are 16.4 min, 206 min and < 10 µg/mL.
Take `CC(C)(C)c1cc(-c2cccc(-c3ccc(C(=O)N4CCC(O)CC4)cc3Cl)c2F)ccn1`: the half-life at 1 µM was 16.3 min in data set [1] and 40.3 min in data set [2]. Moreover, the solubility (kinetic) at 24 h in “Kinetic solubility” is < 10 µg/mL.
On the same counts, the results for `CC(C)(C)c1cc(-c2cccc(-c3ccc(C(=O)NS(=O)(=O)C4CC4)cc3Cl)c2)ccn1` are 12.1 min, 66.7 min and 10 to 60 µg/mL (≈ 21.3 to 128 µM).
For `CC(C)(C)c1cc(-c2cccc(-c3ccc(NS(=O)(=O)CC(F)(F)F)cc3Cl)c2)ccn1` the same measures were > 120 min, > 120 min and < 10 µg/mL.
On the same counts, the results for `CC(C)(C)c1cc(-c2cccc(-c3ccc(NC(=O)N4CCC(O)CC4)cc3Cl)c2)ccn1` are 72.1 min, 400 min and < 10 µg/mL.
